Reference: publication PMC4426631, “Insect antimicrobial peptides show potentiating functional interactions against Gram-negative bacteria” (Proceedings of the Royal Society B: Biological Sciences, 2015)
Entries after “also recorded” stand apart in the source; their conditions may differ. Ends that are not written are not given here. Peptide text beside a SMILES is read from it. * marks the point of attachment. 5FAM = O=C1OC2(c3ccc(O)cc3Oc3cc(O)ccc32)c2ccc(C(=O)*)cc21; Cf = 5(6)-carboxyfluorescein

Experiments:
E. coli DnaK [1] = biological target: T1, E. coli DnaK (Escherichia coli, UniProt P0A6Y8); test: FRET quenching peptide–protein interaction assay with DnaK–BHQ10; format: binding; settings: 2 h, n = 3; for DnaK interaction / binding-curve shape, in words / Kd not determinable: pH 7.4; for Kd not determinable: DnaK–BHQ10 quenching, peptide N-terminal carboxyfluorescein, C-terminal amide
Method: DnaK, produced by Michael Zahn, was dialysed against modifying buffer (20 mmol l^−1 Na2HPO4, 20 mmol l^−1 KH2PO4, 5 mmol l^−1 MgCl2, 150 mmol l^−1 KCl, pH 7.4) as previously described and 2 mg ml^−1 were labelled with a 10-fold molar excess of BHQ10-NHS-ester, followed by supplementary dialysis to remove excess BHQ10.
As previously described, the fluorescein-modified peptides (50 μl, 1.3 nmol l^−1) and a serial dilution of DnaK–BHQ10 in modification buffer (50 μl, 0.8–13 000 nmol l^−1, 1 : 4 dilution series) were mixed in a black 384-well plate and incubated for 2 h. To calculate the quenching effect, a control was measured in five replicates consisting of 50 μl of peptide solution and 50 μl of modification buffer. The fluorescence intensity was recorded on a Paradigm fluorescence reader using a fluorescence intensity (fluo-rhod) detection cartridge (excitation wavelength = 485 ± 10 nm; emission wavelength = 535 ± 12.5 nm; integration time = 140 ms). The quenching effect was defined as the percentage of the fluorescence intensity of the control quenched after the addition of DnaK–BHQ10. Kd values were determined as described in the electronic supplementary material. […]
i) Peptide synthesis and modification.
The peptide sequences shown in Tabl es S1 an d S4 were selected according to their repo rted […]
(Carmel, USA), respectively. The m ature peptide sequences were based on data from closel y-related species and EST information derived from B. terrestris. Other peptides were s ynthesized b y PANATecs (Tübingen, Germ an y) . All peptides were l yoph ilized for storage, and were resuspended and diluted in double-distilled water, which was used as the zero peptide […]
metchnikowin 1 and 2 (Drosophila melanogaster) peptides were modified by the N -terminal addition of 5(6 )-carbox yfluorescein and C -terminal amidation for the quenching assa y. Bombus pascuorum h ymenoptaecin was modified b y the addition of an N-terminal p yroglutamate. The Black Hole Quencher 10 succinimidyl ester (BHQ10-NHS-ester, >75% purit y) was obtained from BioCat (H eidelber g, German y). […]

E. coli DnaK [2] = biological target: T1, E. coli DnaK; settings: ref [51]; cited from earlier work
[3] = system: substrate-binding domain of DnaK; settings: co-crystal structures; ref [58]; cited from earlier work
From the text: Normally, the characteristic sequence stretch YL/IPRP is positioned in the DnaK substrate-binding cleft, with a leucine or isoleucine residue occupying the central hydrophobic pocket. Additional hydrophobic binding sites preceding the central pocket are occupied by the conserved tyrosine residue and another, preferentially hydrophobic amino acid residue, defined as posi ...

E. coli = system: E. coli; design: method as in PMID 6396089; settings: following treatment with H. cecropia attacin; ref [15]; cited from earlier work
[4] = fluorescein-modified peptide 1.3 nmol l−1, DnaK–BHQ10 0.8–13 000 nmol l−1

T1 sequence (P0A6Y8 whole entry): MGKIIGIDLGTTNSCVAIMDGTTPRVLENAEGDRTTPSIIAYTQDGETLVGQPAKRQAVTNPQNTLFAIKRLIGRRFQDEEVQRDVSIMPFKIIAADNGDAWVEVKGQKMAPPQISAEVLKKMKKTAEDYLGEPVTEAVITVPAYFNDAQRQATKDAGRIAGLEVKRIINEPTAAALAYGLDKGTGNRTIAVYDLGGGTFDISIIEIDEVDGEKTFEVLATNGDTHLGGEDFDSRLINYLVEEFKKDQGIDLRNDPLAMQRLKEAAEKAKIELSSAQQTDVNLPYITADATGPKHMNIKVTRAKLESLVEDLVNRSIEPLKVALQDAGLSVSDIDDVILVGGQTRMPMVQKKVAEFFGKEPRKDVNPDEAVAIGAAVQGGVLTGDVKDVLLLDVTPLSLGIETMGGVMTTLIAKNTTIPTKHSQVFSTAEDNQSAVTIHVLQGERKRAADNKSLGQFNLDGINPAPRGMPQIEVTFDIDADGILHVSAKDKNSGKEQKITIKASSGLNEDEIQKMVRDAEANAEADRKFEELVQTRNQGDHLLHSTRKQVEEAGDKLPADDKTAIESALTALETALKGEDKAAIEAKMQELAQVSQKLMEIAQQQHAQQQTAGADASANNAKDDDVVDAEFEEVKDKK

Row | Molecule | DnaK interaction / binding-curve shape, in words (E. coli DnaK [1]; [4]) | Kd not determinable (E. coli DnaK [1]) | also measured
1 | CC[C@H](C)[C@H](NC(=O)[C@H](CCCCN)NC(=O)[C@@H]1CCCN1C(=O)[C@H](CC(N)=O)NC(=O)[C@H](Cc1ccccc1)NC(=O)[C@@H]1CCCN1C(=O)CNC(=O)[C@H](Cc1c[nH]cn1)NC(=O)CNC(=O)[C@@H]1CCCN1C(=O)[C@H](Cc1ccccc1)NC(=O)[C@H](CO)NC(=O)[C@@H]1CCCN1C(=O)[C@H](Cc1ccccc1)NC(=O)[C@@H]1CCCN1C(=O)[C@H](CCCCN)NC(=O)[C@H](CO)NC(=O)[C@H](CCC(N)=O)NC(=O)CNC(=O)[C@@H]1CCCN1C(=O)[C@H](CCCNC(=N)N)NC(=O)[C@@H]1CCCN1C(=O)[C@@H]1CCCN1C(=O)[C@H](CC(N)=O)NC(=O)[C@H](Cc1ccc(O)cc1)NC(=O)[C@@H]1CCCN1C(=O)[C@@H](NC(=O)[C@H](Cc1ccccc1)NC(=O)c1ccc2c(c1)C(=O)OC21c2ccc(O)cc2Oc2cc(O)ccc21)C(C)C)C(=O)N[C@@H](CCC(N)=O)C(=O)N[C@@H](Cc1c[nH]c2ccccc12)C(=O)N1CCC[C@H]1C(=O)N[C@@H](Cc1ccc(O)cc1)C(=O)N1CCC[C@H]1C(=O)N[C@@H](CC(C)C)C(=O)N1CCC[C@H]1C(=O)N[C@@H](CC(N)=O)C(=O)N1CCC[C@H]1C(=O)NCC(=O)N[C@@H](Cc1c[nH]cn1)C(N)=O [B. pascuorum abaecin] (5FAM-FVPYNPPRPGQSKPFPSFPGHGPFNPKIQWPYPLPNPGH-NH2) |  |  | maximum quenching effect (binding efficacy) (E. coli DnaK [1]; fluorescein-modified peptide 1.3 nmol l−1, DnaK–BHQ10 0.8–13 000 nmol l−1, buffer pH 7.4, fluorescence): 74%
2 | Cf-PQPRPPHPRL-OH [apidaecin 1b (#9–18)] | small increase in control readouts with increasing probe concentration |  | DnaK interaction of control peptide, in words (E. coli DnaK [2]): interacts minimally with DnaK
3 | Pyrrhocoricin: proline-rich DnaK-binding AMP (VDKGSYLPRPTPPRPIYNRN; ends and bridges not checked; UniProt P37362 1-20, looked up) |  |  | DnaK binding orientation [3]: can bind to DnaK in both of the above orientations
4 | cecropin B: Hyalophora cecropia cecropin B (KWKVFKKIEKMGRNIRNGIVKAGPAIAVLGEAKAL; ends and bridges not checked; UniProt P01508 27-61, looked up) |  |  | sensitivity of E. coli towards cecropin B following attacin (E. coli): enhanced
5 | drosocin: proline-rich DnaK-binding AMP (GKPRPYSPRPTSHPRPIRV; ends and bridges not checked; UniProt P36193 22-40, looked up) |  |  | DnaK binding orientation [3]: a proline residue near the C-terminus of drosocin occupies the central pocket
6 | metalnikowin I: proline-rich AMP from Palomena prasina (Cf-VDKPDYRPRPRPPNM-NH2) | do not interact significantly with bacterial DnaK | No Kd values could be determined; also recorded: not possible to assign a Kd value | 
7 | metchnikowin 1: proline-rich AMP from Drosophila melanogaster (Cf-HRHQGPIFDTRPSPFNPNQPRPGPIY-NH2) | do not interact significantly with bacterial DnaK | No Kd values could be determined; also recorded: not possible to assign a Kd value | 
8 | metchnikowin 2: proline-rich AMP from Drosophila melanogaster (Cf-HRRQGPIFDTRPSPFNPNQPRPGPIY-NH2) | do not interact significantly with bacterial DnaK | No Kd values could be determined; also recorded: not possible to assign a Kd value | 
